Tests used:
[1] = tested on: PrePS-EPI-like cells in P-ELS; test: Posterior primitive streak-like cell development in P-ELS with antagonists in the induction channel; type: cell-based, human
Source text: (§1) Cell lines. hPSC lines used in this study include H1 human ES cell (WA01, WiCell; NIH registration number: 0043), H9 human ES cell (WA09, WiCell; NIH registration number: 0062) and 1196a (a human iPSC line from the University of Michigan Pluripotent Stem Cell Core31). All hPSC lines have been authenticated by original sources as well as in-house by immunostaining for pluripotency markers and successful differentiation to the three germ layers. All hPSC lines are maintained in a feeder-free system for at least ten passages and authenticated as karyotypically normal. Karyotype analysis was performed by Cell Line Genetics. All hPSC lines are tested negative for mycoplasma contamination (LookOut Mycoplasma PCR Detection Kit, Sigma-Aldrich). Cell culture. hPSCs were maintained in a standard feeder-free culture system using mTeSR medium (mTeSR; STEMCELL Technologies) or TeSR-E8 medium (Essential 8 or E8; STEMCELL Technologies) and lactate dehydrogenase-elevating virus (LDEV)-free, human ES cell-qualified reduced growth factor basement membrane matrix Geltrex (Thermo Fisher Scientific; derived from Engelbreth-Holm-Swarm tumors similarly to Matrigel). Cell cultures were visually examined during each passage to ensure absence of spontaneously differentiated, mesenchymal-like cells in culture. All hPSCs were used before reaching P70. Device fabrication. The microfluidic device consists of a polydimethylsiloxane (PDMS) structure layer bonded to a coverslip. The PDMS structure layer is made by mixing PDMS curing agent and base polymer (Sylgard 184; Dow Coming) at a ratio of 1:10 before casting PDMS prepolymer onto a microfabricated silicon mold and baking at 110° C. for 40 min. Medium reservoirs (8 mm in diameter) and gel-loading ports (1.2 mm in diameter) were then punched into the PDMS structure layer using Harris Uni-Core punch tools (Ted Pella). After cleaning with ethanol and air plasma activation, the PDMS structure layer was bonded to a coverslip before baking at 80° C. overnight. Before usage, the microfluidic device was sterilized under UV light for 30 min. […]

[2] = tested on: human ES cells co-cultured with Transwell-AMLCs; test: Transwell co-culture assay of AMLCs and human ES cells; type: cell-based; conditions: 5 μM in Transwell co-culture, 48 h
Experimental: Immunocytochemistry. hPSCs were fixed in 4% paraformaldehyde (PFA; buffered in 1× PBS) for 12 h, and permeabilized in 0.1% SDS solution (sodium dodecyl sulphate, dissolved in PBS) for another 3 h. Samples were then blocked in 4% donkey serum (Sigma-Aldrich) at 4° C. for 24 h, followed by incubation with primary antibody solutions at 4° C. for another 24 h. Samples were then labelled with donkey-raised secondary antibodies (1:500 dilution) at 4° C. for 24 h, 4,6-diamidino-2-phenylindole (DAPI; Thermo Fisher Scientific) was used for counterstaining cell nuclei. Alexa Fluor dye-conjugated WGA (Thermo Fisher Scientific) and phalloidin (Invitrogen) were used for visualization of cell membrane and actin microfilaments, respectively. Both primary and secondary antibodies were prepared in 4% donkey serum supplemented with 0.1% NaN3. Seventy microlitre antibody solutions were added to each medium reservoir for immunostaining. The asymmetric embryonic-like sac structure was assessed by immunocytochemistry to confirm molecular asymmetry at t=36 h (for P-ELS: co-staining for TFAP2A and T; for A-ELS: co-staining for TFAP2A and NANOG). In situ hybridization. […] For morphogenetic quantification, bright-field or phase-contrast images were acquired using a Zeiss Observer Z1 microscope (Carl Zeiss MicroImaging) equipped with a monochrome CCD camera (AxioCam, Carl Zeiss MicroImaging). […]

hPGCLCs in P-ELS = test: hPGCLC specification in P-ELS; type: cell-based, human; conditions: P-ELS treated with 0.4 μM or 2 μM
Source text: as §1, with “fabrication.” for “fabrication. The microfluidic device consists of a polydimethylsiloxane (PDMS) structure layer bonded to a coverslip. The PDMS structure layer is made by mixing PDMS curing agent and base polymer (Sylgard 184; Dow Coming) at a ratio of 1:10 before casting PDMS prepolymer onto a microfabricated silicon mold and baking at 110° C. for 40 min. Medium reservoirs (8 mm in diameter) and gel-loading ports (1.2 mm in diameter) were then punched into the PDMS structure layer using Harris Uni-Core punch tools (Ted Pella). After cleaning with ethanol and air plasma activation, the PDMS structure layer was bonded to a coverslip before baking at 80° C. overnight. Before usage, the microfluidic device was sterilized under UV light for 30 min.”

## Cc1ccc2nc(NC(=O)CSc3nc4c(c(=O)n3-c3ccccc3)SCC4)sc2c1 [IWP2]
[1]; IWR1 10 μM or IWP2 5 μM
  Inhibition of induction of MeLC in posteriorized embryonic-like sac: inhibited
[1]; supplemented in the induction channel (IWP2 5 μM, IWR1 10 μM, noggin 50 ng ml^−1), BMP4 in cell-loading channel
  Inhibition of PrePS-EPI-like cell development: completely inhibited
[2]
  Differentiation of posterior primitive streak-like cells: inhibited

## O=C(Nc1cccc2cccnc12)c1ccc(N2C(=O)[C@@H]3[C@H](C2=O)[C@@H]2C=C[C@H]3C2)cc1 [IWR1]
[1]; prolonged culture to t=48 h, IWR1 10 μM in induction channel
  Effect on progressive development of P-ELS: does not affect

## O=C(NNc1nc2cc(F)ccc2n2cccc12)c1cnccn1 [SC144]
hPGCLCs in P-ELS
  Effect on hPGCLC specification: did not affect
